Target: T1, BCL6 (Homo sapiens, UniProt P41182)
T1 construct: endogenous in cells; host or cells: T47D breast cancer epithelial cells
Assay: Immunofluorescence protocol for high content imaging of BCL6 (degradation) in T47D cells, 3 days compound treatment
Assay type: cell-based
Settings: T47D cells, 3 days compound treatment; for DC50: read-out: Mean DC50 (nM)* category; for Dmax: read-out: Mean Dmax (%)** category
Method in brief: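 Read-out: high-content imaging of anti-BCL6 immunofluorescence (Alexa-488 secondary) with CellMask and Hoechst counterstains, 10×, 4 fields/well. Cells had 3 days of compound exposure at 37° C, 5% CO2, 11-point 3-fold series from a final top of 0.1 or 1 μM.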

Compound	DC50 [nM]	Dmax [%]
CNC(=O)COc1cc2cc(Nc3nc(N4CCC[C@H](COc5cccc6c5C(=O)N(C5CCC(=O)NC5=O)C6=O)C4)ncc3Cl)ccc2n(CCN(C)C)c1=O (stereo partly drawn) [Compound 141, 2-{[6-({5-chloro-2-[(3S)-3-({[2-(2,6-dioxopiperidin-3-yl)-1,3-dioxo-2,3-dihydro-1H-isoindol-4-yl]oxy}methyl)piperidin-1-yl]pyrimidin-4-yl}amino)-1-[2-(dimethylamino)ethyl]-2-oxo-1,2-dihydroquinolin-3-yl]oxy}-N-methylacetamide]	≥ 100	
CNC(=O)COc1cc2cc(Nc3nc(N4CCOC5(CN(CC6CCN(c7ccc8c(c7)C(=O)N(C7CCC(=O)NC7=O)C8=O)CC6)C5)C4)ncc3Cl)ccc2n(C(C)C)c1=O (centres unmarked) [Compound 142, 2-{[6-({5-chloro-2-[2-({1-[2-(2,6-dioxopiperidin-3-yl)-1,3-dioxo-2,3-dihydro-1H-isoindol-5-yl]piperidin-4-yl}methyl)-5-oxa-2,8-diazaspiro[3.5]nonan-8-yl]pyrimidin-4-yl}amino)-2-oxo-1-(propan-2-yl)-1,2-dihydroquinolin-3-yl]oxy}-N-methylacetamide]	≥ 100	
CNC(=O)COc1cc2cc(Nc3nc(N4CCOC5(CN(CC6CCN(c7cccc8c7C(=O)N(C7CCC(=O)NC7=O)C8=O)CC6)C5)C4)ncc3Cl)ccc2n(C(C)C)c1=O (centres unmarked) [Compound 143, 2-{[6-({5-chloro-2-[2-({1-[2-(2,6-dioxopiperidin-3-yl)-1,3-dioxo-2,3-dihydro-1H-isoindol-4-yl]piperidin-4-yl}methyl)-5-oxa-2,8-diazaspiro[3.5]nonan-8-yl]pyrimidin-4-yl}amino)-2-oxo-1-(propan-2-yl)-1,2-dihydroquinolin-3-yl]oxy}-N-methylacetamide]	≥ 100	
CNC(=O)COc1cc2cc(Nc3nc(N4CCOC5(CN(CCC6CCN(c7cccc8c7C(=O)N(C7CCC(=O)NC7=O)C8=O)CC6)C5)C4)ncc3Cl)ccc2n(C(C)C)c1=O (centres unmarked) [Compound 144, 2-{[6-({5-chloro-2-[2-(2-{1-[2-(2,6-dioxopiperidin-3-yl)-1,3-dioxo-2,3-dihydro-1H-isoindol-4-yl]piperidin-4-yl}ethyl)-5-oxa-2,8-diazaspiro[3.5]nonan-8-yl]pyrimidin-4-yl}amino)-2-oxo-1-(propan-2-yl)-1,2-dihydroquinolin-3-yl]oxy}-N-methylacetamide]	≥ 100	≥ 70
CNC(=O)COc1cc2cc(Nc3nc(N4CCOC5(CN(CCC6CCN(c7ccc8c(c7)C(=O)N(C7CCC(=O)NC7=O)C8=O)CC6)C5)C4)ncc3Cl)ccc2n(C(C)C)c1=O (centres unmarked) [Compound 145, 2-{[6-({5-chloro-2-[2-(2-{1-[2-(2,6-dioxopiperidin-3-yl)-1,3-dioxo-2,3-dihydro-1H-isoindol-5-yl]piperidin-4-yl}ethyl)-5-oxa-2,8-diazaspiro[3.5]nonan-8-yl]pyrimidin-4-yl}amino)-2-oxo-1-(propan-2-yl)-1,2-dihydroquinolin-3-yl]oxy}-N-methylacetamide]	< 10	
CNC(=O)COc1cc2cc(Nc3ncncc3Cl)ccc2n(CCOc2ccc3c(c2)C(=O)N(C2CCC(=O)NC2=O)C3=O)c1=O (centres unmarked) [Compound 146, 2-({6-[(5-chloropyrimidin-4-yl)amino]-1-(2-{[2-(2,6-dioxopiperidin-3-yl)-1,3-dioxo-2,3-dihydro-1H-isoindol-5-yl]oxy}ethyl)-2-oxo-1,2-dihydroquinolin-3-yl}oxy)-N-methylacetamide]	< 10	
CNC(=O)COc1cc2cc(Nc3nc(C)ncc3Cl)ccc2n(CCOc2ccc3c(c2)C(=O)N(C2CCC(=O)NC2=O)C3=O)c1=O (centres unmarked) [Compound 147, 2-({6-[(5-chloro-2-methylpyrimidin-4-yl)amino]-1-(2-{[2-(2,6-dioxopiperidin-3-yl)-1,3-dioxo-2,3-dihydro-1H-isoindol-5-yl]oxy}ethyl)-2-oxo-1,2-dihydroquinolin-3-yl}oxy)-N-methylacetamide]	< 10	
CNC(=O)COc1cc2cc(Nc3nc(N4CCC(OC5CCC(N6CCC(c7cccc8c7C(=O)N(C7CCC(=O)NC7=O)C8=O)CC6)C5)CC4)ncc3Cl)ccc2n(C(C)C)c1=O (centres unmarked) [Compound 148, 2-({6-[(5-chloro-2-{4-[(3-{4-[2-(2,6-dioxopiperidin-3-yl)-1,3-dioxo-2,3-dihydro-1H-isoindol-4-yl]piperidin-1-yl}cyclopentyl)oxy]piperidin-1-yl}pyrimidin-4-yl)amino]-2-oxo-1-(propan-2-yl)-1,2-dihydroquinolin-3-yl}oxy)-N-methylacetamide]	50 to 100	< 50
CNC(=O)COc1cc2cc(Nc3nc(N4CCC(CN5CCC6(CC5)CC(c5ccc7c(c5)C(=O)N(C5CCC(=O)NC5=O)C7=O)C6)CC4)ncc3Cl)ccc2n(C(C)C)c1=O (centres unmarked) [Compound 150, 2-{[6-({5-chloro-2-[4-({2-[2-(2,6-dioxopiperidin-3-yl)-1,3-dioxo-2,3-dihydro-1H-isoindol-5-yl]-7-azaspiro[3.5]nonan-7-yl}methyl)piperidin-1-yl]pyrimidin-4-yl}amino)-2-oxo-1-(propan-2-yl)-1,2-dihydroquinolin-3-yl]oxy}-N-methylacetamide]	10 to 50	50 to 70
CNC(=O)COc1cc2cc(Nc3nc(N4CCC(F)(CN5CCC6(CC5)CCN(c5c(F)ccc7c5CN(C5CCC(=O)NC5=O)C7=O)CC6)CC4)ncc3Cl)ccc2n(C(C)C)c1=O (centres unmarked) [Compound 151, 2-{[6-({5-chloro-2-[4-({9-[2-(2,6-dioxopiperidin-3-yl)-5-fluoro-1-oxo-2,3-dihydro-1H-isoindol-4-yl]-3,9-diazaspiro[5.5]undecan-3-yl}methyl)-4-fluoropiperidin-1-yl]pyrimidin-4-yl}amino)-2-oxo-1-(propan-2-yl)-1,2-dihydroquinolin-3-yl]oxy}-N-methylacetamide]	< 10	50 to 70
CNC(=O)COc1cc2cc(Nc3nc(N4CCC5(CCN(CC6(F)CCN(c7c(F)ccc8c7C(=O)N(C7CCC(=O)NC7=O)C8)CC6)CC5)CC4)ncc3Cl)ccc2n(C(C)C)c1=O (centres unmarked) [Compound 152, 2-{[6-({5-chloro-2-[9-({1-[2-(2,6-dioxopiperidin-3-yl)-5-fluoro-3-oxo-2,3-dihydro-1H-isoindol-4-yl]-4-fluoropiperidin-4-yl}methyl)-3,9-diazaspiro[5.5]undecan-3-yl]pyrimidin-4-yl}amino)-2-oxo-1-(propan-2-yl)-1,2-dihydroquinolin-3-yl]oxy}-N-methylacetamide]	10 to 50	
CNC(=O)COc1cc2cc(Nc3nc(N4CCC(O[C@H]5C[C@@H](N6CCC(c7ccc8c(c7)C(=O)N(C7CCC(=O)NC7=O)C8=O)CC6)C5)CC4)ncc3Cl)ccc2n(C(C)C)c1=O (some centres unmarked) [Compound 153, 2-({6-[(5-chloro-2-{4-[(1s,3s)-3-{4-[2-(2,6-dioxopiperidin-3-yl)-1,3-dioxo-2,3-dihydro-1H-isoindol-5-yl]piperidin-1-yl}cyclobutoxy]piperidin-1-yl}pyrimidin-4-yl)amino]-2-oxo-1-(propan-2-yl)-1,2-dihydroquinolin-3-yl}oxy)-N-methylacetamide]	50 to 100	< 50
CNC(=O)COc1cc2cc(Nc3nc(N4CCC5(CC4)CC(C(C)(C)N4CCC(c6cccc7c6CN(C6CCC(=O)NC6=O)C7=O)CC4)C5)ncc3Cl)ccc2n(C(C)C)c1=O (centres unmarked) [Compound 154, 2-{[6-({5-chloro-2-[2-(2-{4-[2-(2,6-dioxopiperidin-3-yl)-1-oxo-2,3-dihydro-1H-isoindol-4-yl]piperidin-1-yl}propan-2-yl)-7-azaspiro[3.5]nonan-7-yl]pyrimidin-4-yl}amino)-2-oxo-1-(propan-2-yl)-1,2-dihydroquinolin-3-yl]oxy}-N-methylacetamide]	≥ 100	50 to 70
CNC(=O)COc1cc2cc(Nc3nc(N4CCN(CC5C6CN(c7ccc8c(c7)C(=O)N(C7CCC(=O)NC7=O)C8=O)CC56)CC4)ncc3Cl)ccc2n(C(C)C)c1=O (centres unmarked) [Compound 155, 2-{[6-({5-chloro-2-[4-({3-[2-(2,6-dioxopiperidin-3-yl)-1,3-dioxo-2,3-dihydro-1H-isoindol-5-yl]-3-azabicyclo [3.1.0]hexan-6-yl}methyl)piperazin-1-yl]pyrimidin-4-yl}amino)-2-oxo-1-(propan-2-yl)-1,2-dihydroquinolin-3-yl]oxy}-N-methylacetamide]	< 10	< 50
CNC(=O)COc1cc2cc(Nc3nc(N4CCN(CC5C6CN(c7cccc8c7C(=O)N(C7CCC(=O)NC7=O)C8=O)CC56)CC4)ncc3Cl)ccc2n(C(C)C)c1=O (centres unmarked) [Compound 156, 2-{[6-({5-chloro-2-[4-({3-[2-(2,6-dioxopiperidin-3-yl)-1,3-dioxo-2,3-dihydro-1H-isoindol-4-yl]-3-azabicyclo[3.1.0]hexan-6-yl}methyl)piperazin-1-yl]pyrimidin-4-yl}amino)-2-oxo-1-(propan-2-yl)-1,2-dihydroquinolin-3-yl]oxy}-N-methylacetamide]	< 10	
CNC(=O)COc1cc2cc(Nc3nc(N4CC5C(CN6CCN(c7ccc8c(c7)C(=O)N(C7CCC(=O)NC7=O)C8=O)CC6)C5C4)ncc3Cl)ccc2n(C(C)C)c1=O (centres unmarked) [Compound 157, 2-{[6-({5-chloro-2-[6-({4-[2-(2,6-dioxopiperidin-3-yl)-1,3-dioxo-2,3-dihydro-1H-isoindol-5-yl]piperazin-1-yl}methyl)-3-azabicyclo [3.1.0]hexan-3-yl]pyrimidin-4-yl}amino)-2-oxo-1-(propan-2-yl)-1,2-dihydroquinolin-3-yl]oxy}-N-methylacetamide]	10 to 50	< 50
CNC(=O)COc1cc2cc(Nc3nc(N4CC5C(CN6CCN(c7cccc8c7C(=O)N(C7CCC(=O)NC7=O)C8=O)CC6)C5C4)ncc3Cl)ccc2n(C(C)C)c1=O (centres unmarked) [Compound 158, 2-{[6-({5-chloro-2-[6-({4-[2-(2,6-dioxopiperidin-3-yl)-1,3-dioxo-2,3-dihydro-1H-isoindol-4-yl]piperazin-1-yl}methyl)-3-azabicyclo [3.1.0]hexan-3-yl]pyrimidin-4-yl}amino)-2-oxo-1-(propan-2-yl)-1,2-dihydroquinolin-3-yl]oxy}-N-methylacetamide]	10 to 50	< 50

From patent US11986532B2 (Arvinas Operations, Inc., priority 2021, dated 2024)
